Laboratory results reported in US11098056B2, “UDP glycosyltransferase inhibitors and methods of use” (GENZYME CORPORATION, priority 2018, dated 2021).
Counter-ions that a name gives are not always drawn.

Molecular target: T1, UGT8 (Homo sapiens, UniProt Q16880)
T1 construct: host or cells: OE19 cells
T1 sequence (Q16880 21-541): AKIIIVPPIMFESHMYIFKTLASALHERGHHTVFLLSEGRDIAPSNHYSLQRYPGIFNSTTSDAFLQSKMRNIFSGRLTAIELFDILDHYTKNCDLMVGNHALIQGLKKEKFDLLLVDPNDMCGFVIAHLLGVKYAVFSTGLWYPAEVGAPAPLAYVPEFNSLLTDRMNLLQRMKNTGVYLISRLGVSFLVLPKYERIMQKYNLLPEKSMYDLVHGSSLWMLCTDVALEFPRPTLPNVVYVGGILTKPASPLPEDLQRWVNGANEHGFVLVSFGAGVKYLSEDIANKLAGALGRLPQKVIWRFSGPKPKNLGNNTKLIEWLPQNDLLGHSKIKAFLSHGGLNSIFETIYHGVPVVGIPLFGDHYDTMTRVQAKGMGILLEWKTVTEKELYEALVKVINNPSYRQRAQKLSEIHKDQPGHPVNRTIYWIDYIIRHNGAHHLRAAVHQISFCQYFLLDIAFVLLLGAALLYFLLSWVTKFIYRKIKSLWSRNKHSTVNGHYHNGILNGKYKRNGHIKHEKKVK
Test: In vitro sulfatide (SFT) synthesis inhibition in OE19 cells, LC-MS/MS readout
Type: cell-based
Settings: 72 hr, sulfatide by LC-MS/MS; for IC50: read-out: Potency range (IC50, In-vitro SFT)
Outline: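 OE19 cells, 2,500/well, exposed to compound dose-downs in triplicate for 72 hr at 37° C (screening at 10 μM final). Sulfatide quantified by LC-MS/MS (C8 UPLC, isocratic, negative-ion MRM) with C17 SFT internal standard; IC50 from concentration-response curves.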

Compound	IC50	Potency range (IC50, In-vitro SFT)
CNC(=O)c1csc2c(C(F)(F)F)cc(N3CCN(CC4CN(C(C)C)CCO4)CC3)nc12 (centres unmarked) [Example 552, 5-(4-((4-Isopropylmorpholin-2-yl)methyl)piperazin-1-yl)-N-methyl-7-(trifluoromethyl)thieno[3,2-b]pyridine-3-carboxamide trifluoroacetate]	> 1000 nM	
CNC(=O)c1csc2c(C(F)(F)F)cc(C3CCN(C(=O)O[C@@H](C)C4CC4)CC3)nc12 [Example 566, (S)-1-Cyclopropylethyl 4-(3-(methylcarbamoyl)-7-(trifluoromethyl)thieno[3,2-b]pyridin-5-yl)piperidine-1-carboxylate]	< 100 nM	
CNC(=O)c1csc2c(C(F)(F)F)cc(C3CC4(C3)CN(C(=O)OC(C)(C)C)C4)nc12 [Example 574, tert-Butyl 6-(3-(methylcarbamoyl)-7-(trifluoromethyl)thieno[3,2-b]pyridin-5-yl)-2-azaspiro[3.3]heptane-2-carboxylate]	< 100 nM	
CNC(=O)c1csc2c(C(F)(F)F)cc(C3CC4(C3)CN(C(=O)OCCOC(F)(F)F)C4)nc12 [Example 576, 2-(Trifluoromethoxy)ethyl 6-(3-(methylcarbamoyl)-7-(trifluoromethyl)thieno[3,2-b]pyridin-5-yl)-2-azaspiro[3.3]heptane-2-carboxylate]	< 100 nM	
CNC(=O)c1csc2c(C(F)(F)F)cc(OCC3CN(C(=O)OC(C)(C)C)C3)nc12 [Example 585, tert-Butyl 3-(((3-(methylcarbamoyl)-7-(trifluoromethyl)thieno[3,2-b]pyridin-5-yl)oxy)methyl)azetidine-1-carboxylate]	100 to 1000 nM	
CNC(=O)c1csc2c(C(F)(F)F)cc(OC3CCN(C(=O)OC(C)(C)C)C3)nc12 (centres unmarked) [Example 589, tert-Butyl 3-((3-(methylcarbamoyl)-7-(trifluoromethyl)thieno[3,2-b]pyridin-5-yl)oxy)pyrrolidine-1-carboxylate]	100 to 1000 nM	
CNC(=O)c1csc2c(C(F)(F)F)cc(OC3CCN(C(=O)NCC4CC4)C3)nc12 (centres unmarked) [Example 590, 5-((1-((Cyclopropylmethyl)carbamoyl)pyrrolidin-3-yl)oxy)-N-methyl-7-(trifluoromethyl)thieno[3,2-b]pyridine-3-carboxamide]	100 to 1000 nM	
CNC(=O)c1csc2c(C(F)(F)F)cc(O[C@H]3CCN(C(=O)OC(C)(C)C)C3)nc12 [Example 593, tert-Butyl (S)-3-((3-(methylcarbamoyl)-7-(trifluoromethyl)thieno[3,2-b]pyridin-5-yl)oxy)pyrrolidine-1-carboxylate]	100 to 1000 nM	
CNC(=O)c1csc2c(C(F)(F)F)cc(O[C@H]3CCN(C(=O)NCC4CC4)C3)nc12 [Example 594, (S)-5-((1-((Cyclopropylmethyl)carbamoyl)pyrrolidin-3-yl)oxy)-N-methyl-7-(trifluoromethyl)thieno[3,2-b]pyridine-3-carboxamide]	100 to 1000 nM	
CNC(=O)c1csc2c(C(F)(F)F)cc(O[C@H]3CCN(C(=O)OCC4CC4)C3)nc12 [Example 595, Cyclopropylmethyl (S)-3-((3-(methylcarbamoyl)-7-(trifluoromethyl)thieno[3,2-b]pyridin-5-yl)oxy)pyrrolidine-1-carboxylate]	< 100 nM	
CNC(=O)c1csc2c(C(F)(F)F)cc(O[C@H]3CCN(C(=O)OCCOC(F)(F)F)C3)nc12 [Example 600, 2-(Trifluoromethoxy)ethyl (S)-3-((3-(methylcarbamoyl)-7-(trifluoromethyl)thieno[3,2-b]pyridin-5-yl)oxy)pyrrolidine-1-carboxylate]	< 100 nM	
CNC(=O)c1csc2c(C(F)(F)F)cc(CC3CCN(C(=O)OCCOC(F)(F)F)CC3)nc12 [Example 632, 2-(Trifluoromethoxy)ethyl 4-((3-(methylcarbamoyl)-7-(trifluoromethyl)thieno[3,2-b]pyridin-5-yl)methyl)piperidine-1-carboxylate]	< 100 nM	
CNC(=O)c1csc2c(C(F)(F)F)cc(CC3CCN(C(=O)OC(C)(C)C)CC3)nc12 [Example 634, tert-Butyl 4-((3-(methylcarbamoyl)-7-(trifluoromethyl)thieno[3,2-b]pyridin-5-yl)methyl)piperidine-1-carboxylate]	100 to 1000 nM	
CNC(=O)c1csc2c(C(F)(F)F)c(Cl)c(N3CCN(CC(=O)NC(C)C)CC3)nc12 [Example 636, 6-Chloro-5-[4-[2-(isopropylamino)-2-oxo-ethyl]piperazin-1-yl]-N-methyl-7-(trifluoromethyl)thieno[3,2-b]pyridine-3-carboxamide]	100 to 1000 nM	
CNC(=O)c1c(OC)sc2c(C(F)(F)F)c(Cl)c(N3CCN(CC(=O)NC(C)C)CC3)nc12 [Example 637, 6-Chloro-5-[4-[2-(isopropylamino)-2-oxo-ethyl]piperazin-1-yl]-2-methoxy-N-methyl-7-(trifluoromethyl)thieno[3,2-b]pyridine-3-carboxamide]	100 to 1000 nM	
CNC(=O)c1csc2c(C(F)(F)F)c(Cl)c(N3CCC(OC(=O)NCC4CC4)CC3)nc12 [Example 638, [1-[6-Chloro-3-(methylcarbamoyl)-7-(trifluoromethyl)thieno[3,2-b]pyridin-5-yl]-4-piperidyl] N-(cyclopropylmethyl)carbamate]	< 100 nM	
CNC(=O)c1csc2c(C(F)(F)F)c(F)c(N3CCC(OC(=O)N[C@@H](C)C4CC4)CC3)nc12 [Example 639, [1-[6-Fluoro-3-(methylcarbamoyl)-7-(trifluoromethyl)thieno[3,2-b]pyridin-5-yl]-4-piperidyl] N-[(1S)-1-cyclopropylethyl]carbamate]	< 100 nM	
CNC(=O)c1csc2c(C(F)(F)F)c(Cl)c(N3CCC(OC(=O)NC4CC4)CC3)nc12 [Example 640, [1-[6-Chloro-3-(methylcarbamoyl)-7-(trifluoromethyl)thieno[3,2-b]pyridin-5-yl]-4-piperidyl] N-cyclopropylcarbamate]	< 100 nM	
CNC(=O)c1csc2c(C(F)(F)F)c(F)c(N3CCC(OC(=O)NC4CC4)CC3)nc12 [Example 641, [1-[6-fluoro-3-(methylcarbamoyl)-7-(trifluoromethyl)thieno[3,2-b]pyridin-5-yl]-4-piperidyl] N-cyclopropylcarbamate]	< 100 nM	
CC(C)NC(=O)c1csc2c(C(F)(F)F)cc(N3CCC(NC(=O)OC(C)(C)C)C3)nc12 (centres unmarked) [Example 642, tert-Butyl N-[1-[3-(isopropylcarbamoyl)-7-(trifluoromethyl)thieno[3,2-b]pyridin-5-yl]pyrrolidin-3-yl]carbamate]	100 to 1000 nM	
CC(C)NC(=O)CN1CCN(c2cc(C(F)(F)F)c3scc(C(=O)N4CCC4)c3n2)CC1 [Example 649, 2-[4-[3-(Azetidine-1-carbonyl)-7-(trifluoromethyl)thieno[3,2-b]pyridin-5-yl]piperazin-1-yl]-N-isopropyl-acetamide]	100 to 1000 nM	
[2H]C([2H])([2H])NC(=O)c1csc2c(C(F)(F)F)cc(N3CCC(OC(=O)NC4CC4)CC3)nc12 [Example 653, [1-[3-(Trideuteriomethylcarbamoyl)-7-(trifluoromethyl)thieno[3,2-b]pyridin-5-yl]-4-piperidyl] N-cyclopropylcarbamate]	< 100 nM	
COC(=O)c1csc2c(C(F)(F)F)cc(N3CCC(NC(=O)OC(C)(C)C)C3)nc12 (centres unmarked) [Example 659, Methyl 5-[3-(tert-butoxycarbonylamino)pyrrolidin-1-yl]-7-(trifluoromethyl)thieno[3,2-b]pyridine-3-carboxylate]	100 to 1000 nM	
CNC(=O)c1csc2c(C(F)(F)F)cc(N3CCC(OC(=O)NCC4CC4)CC3)nc12.Cl [Example 669, [1-[3-(Methylcarbamoyl)-7-(trifluoromethyl)thieno[3,2-b]pyridin-5-yl]-4-piperidyl] N-(cyclopropylmethyl)carbamate hydrochloride]		A (A < 0.1 uM)
CNC(=O)c1csc2c(C(F)(F)F)cc(N3CCC(OC(=O)NC(C)C(F)F)CC3)nc12 (centres unmarked) [Example 670, [1-[3-(Methylcarbamoyl)-7-(trifluoromethyl)thieno[3,2-b]pyridin-5-yl]-4-piperidyl] N-(2,2-difluoro-1-methyl-ethyl)carbamate]	< 100 nM	
CNC(=O)c1csc2c(C(F)(F)F)cc(N3CCC(OC(=O)N[C@H](C)CF)CC3)nc12 [Example 692, [1-[3-(Methylcarbamoyl)-7-(trifluoromethyl)thieno[3,2-b]pyridin-5-yl]-4-piperidyl] N-[(1R)-2-fluoro-1-methyl-ethyl]carbamate]	< 100 nM	
CNC(=O)c1csc2c(C(F)(F)F)cc(OC3CC4COCC(C3)N4C(=O)OC(C)(C)C)nc12 (centres unmarked) [Example 750]	> 1000 nM	
CNC(=O)c1csc2c(C(F)(F)F)cc(N3CCN(C(=O)OCC4CC4)CC3)nc12 [Example 780, Cyclopropylmethyl 4-(3-(methylcarbamoyl)-7-(trifluoromethyl)thieno[3,2-b]pyridin-5-yl)piperazine-1-carboxylate]	< 100 nM	
CNC(=O)c1csc2c(C(F)(F)F)cc(N3CCC(OC(=O)N4C[C@H](N(C)C)[C@@H]4C)CC3)nc12 [Example 793, 1-(3-(Methylcarbamoyl)-7-(trifluoromethyl)thieno[3,2-b]pyridin-5-yl)piperidin-4-yl (2S,3S)-3-(dimethylamino)-2-methylazetidine-1-carboxylate]	100 to 1000 nM	
